Test results from paper PMC9332707, “Bio-Guided Isolation of SARS-CoV-2 Main Protease Inhibitors from Medicinal Plants: In Vitro Assay and Molecular Dynamics” (Plants, 2022).
Values after ≈ are worked out from the molar mass of the structure shown. Like-named read-outs stand apart in the source and are kept apart here.

Tests used:
[1] = test system: M^PRO; details: read-out: reported bioassay IC50 (M^PRO); reported for the co-crystallized inhibitors (PDB 7CBT, 6W63); ref not given; cited from earlier work
[2] = target: SARS-CoV-2 M^PRO (Severe acute respiratory syndrome coronavirus 2, UniProt P0DTD1); assay: biochemical; type: biochemical
[3] = test system: SARS-CoV-2 (hCoV-19/Egypt/NRC-03/2020); assay: microbe, parasite or virus in culture; type: cell-based; details: for selectivity index CC50/IC50: CC50 (VERO-E6) / antiviral IC50
[4] = in vitro; details: African green monkey
[5] = design: method as in PMID 33203926; details: cited from earlier work
[6] = test system: SARS-CoV-2 infection; design: method as in PMID 33203926; details: read-out: IC50 against SARS-CoV-2 infection; cited from earlier work
[7] = cited from earlier work
[8] = MTT cytotoxicity assay; details: African green monkey
[9] = design: method as in earlier work; details: dose of 5 mg/day to 2600 mg/day, without any toxic symptoms; cited from earlier work
[10] = design: method as in PMID 24924310; details: cited from earlier work
[11] = Severe acute respiratory syndrome coronavirus 2, Vero C1008, hCoV-19/Egypt/NRC-03/2020 on Vero-E6 cells, read-out: IC50 antiviral activity against SARS-CoV-2
[12] = relative to GC376 standard inhibitor, read-out: IC50 on SARS-CoV-2 viral main protease
[13] = Severe acute respiratory syndrome coronavirus 2, Vero C1008, read-out: IC50 antiviral activity against SARS-CoV-2

Question: Which IC50 [1] does the source give for `CC(C)(C)c1ccc(N(C(=O)c2cnc[nH]2)[C@@H](C(=O)NC2CCCCC2)c2cccnc2)cc1` [X77] here?
Answer: 2.3 µM

Question: With `COc1ccc(-c2cc(=O)c3c(O)c(OC)c(OC)c(OC)c3o2)cc1` [Gardenin B] as the molecule, how does the “% Inhibition of SARS-CoV-2 M^PRO by isolated compounds” value (“% Inhibition of SARS-CoV-2 M^PRO” for short) [2] read?
Answer: 1.00%

Question: For `CCCCCCCC(=O)CCc1ccc(O)c(OC)c1` [6-Paradol], which “selectivity index CC50/IC50” value [3] is on record?
Answer: 0.6

Question: What about the IC50 [3, 11] of the same molecule?
Answer: 281 mg/L (≈ 1010 µM)

Question: And the “% Inhibition of SARS-CoV-2 M^PRO” value ([2]; FRET assay, isolated compounds)?
Answer: 71.8%

Question: What about the IC50 [2, 12] of the same molecule?
Answer: 0.168 µM

Question: And the CC50 [4]?
Answer: 155 mg/L (≈ 557 µM)

Question: With `CC(C)C[C@H](NC(=O)OCc1ccccc1)C(=O)N[C@@H](CC1CCNC1=O)C(O)S(=O)(=O)O` (stereo partly drawn) [GC376] as the molecule, how does the IC50 [1] read?
Answer: 0.026 µM

Question: Which “selectivity index CC50/IC50” value [3] does the source give for `CCCCC[C@H](O)CC(=O)CCc1ccc(O)c(OC)c1` [6-Gingerol] here?
Answer: 2.3

Question: What about the IC50 [3, 13] of the same molecule?
Answer: 43.5 mg/L (≈ 148 µM)

Question: What about the CC50 [5] of the same molecule?
Answer: > 100 µM

Question: What about the IC50 [6] of the same molecule?
Answer: > 100 µM

Question: And the “absorption after oral administration” value ([7]; detected in blood as glucuronide and sulfate conjugates)?
Answer: well-absorbed

Question: And the “toxicity / tolerability in humans” value ([7]; doses up to 2.0 g daily, only mild gastrointestinal complaints)?
Answer: low levels of toxicity and high levels of tolerability

Question: What about the “% Inhibition of SARS-CoV-2 M^PRO” value [2] of the same molecule?
Answer: 65.2%

Question: And the IC50 [2]?
Answer: 9.33 µM

Question: And the CC50 [8]?
Answer: 101 mg/L (≈ 344 µM)

Question: For `COc1cc(-c2cc(=O)c3c(O)c(OC)c(OC)c(OC)c3o2)cc(OC)c1OC` [Gardenin A], which “selectivity index CC50/IC50” value [3] is on record?
Answer: 2.9

Question: What about the IC50 [3, 11] of the same molecule?
Answer: 83.8 mg/L (≈ 200 µM)

Question: And the “% Inhibition of SARS-CoV-2 M^PRO” value [2]?
Answer: 73.80%

Question: What about the IC50 [2, 12] of the same molecule?
Answer: 5.96 µM

Question: What about the CC50 [4] of the same molecule?
Answer: 246 mg/L (≈ 589 µM)

Question: Which results are given for `CC1=CC(=O)C(C(C)C)=CC1=O` [Thymoquinone]?
Answer: selectivity index CC50/IC50 [3]: 1.33; IC50 [3, 13]: 6.14 mg/L (≈ 37.4 µM); clinical safety [9]: safe; % Inhibition of SARS-CoV-2 M^PRO by isolated compounds ([2]; FRET assay, isolated compounds): 63.21%; IC50 [2, 12]: 10.3 µM; CC50 ([8]; VERO-E6 cells): 8.2 mg/L (≈ 49.9 µM); elimination ([10]; after oral and IV administration): rapid-elimination properties; absorption following oral administration ([10]; oral): relatively slower absorption
